Inconclusive results are not listed.
Each compound was assayed against Virion infectivity factor (Human immunodeficiency virus type 1 group M subtype B (isolate BH10)) + Virion infectivity factor (Human immunodeficiency virus type 1 group M subtype B (isolate BRU/LAI)) + Virion infectivity factor (Human immunodeficiency virus type 1 group M subtype B (isolate PCV12)) + Virion infectivity factor (Human immunodeficiency virus type 1 group M subtype B (isolate HXB2)) + DNA dC->dU-editing enzyme APOBEC-3G (Homo sapiens) (UniProt P69720+P69721+P69722+P69723+Q9HC16) (assay: inhibitors of Vif binding to APOBEC3G peptide, primary screen, biochemical, TR-FRET, GST-Vif 1-94, biotin-A3G peptide, dose response retest (AID 1117319);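 also: Vif residues 1-94 fused to GST binding biotinylated APOBEC3G peptide 110-148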).

SMILES	IC50
NS(=O)(=O)c1ccc(N=Nc2ccc(=O)[nH]c2O)cc1	5.22 µM
C=C(C)C(=O)Nc1cccc(C2=NOC3(C2)C[C@@H](C(N)=O)N(C(=O)c2cc([N+](=O)[O-])cc([N+](=O)[O-])c2)C3)c1 (stereo partly specified)	4.69 µM
CCCCN1C2CCCC1CC(NC(=O)c1ccc(OC)c(OC)c1)C2 (stereo unspecified)	19.1 µM
CCN1CCc2c(C#N)c(NCc3ccccc3)nc(N(CC)CC)c2C1	62.8 µM
O=S(=O)(Nc1nccs1)c1ccc(Nc2nnc(-c3ccccc3)c3ccccc23)cc1	84.3 µM
c1coc(-c2nc3nc4ccccc4n3nc2-c2ccco2)c1	12.3 µM
Cc1cccn2c(=O)c3cc(C(=O)NCc4ccco4)c(=N)n(CCc4ccccc4)c3nc12	34 µM
Cc1ccc(C(=O)N/N=C\c2cc(Br)c(Br)o2)cn1	6.24 µM
O=C(Cc1ncn[nH]1)NCCc1ccccc1	96.9 µM
CCCC(=O)Nc1ccc(Br)cn1	65.1 µM
c1ccc2c(c1)NCC1CCCN21 (stereo unspecified)	38.1 µM
CCc1cc(=O)n2[nH]c(C)c(-c3ccccc3OC)c2n1	4.38 µM
CCOC(=O)C1=C(Cc2ccc(Cl)cc2)C(=O)c2ccccc2C1=O	34.7 µM
CC1(C)Cc2nc3sc4c(SCC(=O)NCc5ccco5)ncnc4c3cc2CO1	79.5 µM
CNc1ccc(Br)cc(C(=O)/C=C/c2ccc(OC)cc2OC)c1=O	2.79 µM
Oc1ccc(/C=N/N2CCOCC2)c(O)c1O	12.5 µM
Cc1ccc(NC(=O)c2ccc(Cl)c(N3C(=O)C=CC3=O)c2)cc1	81.2 µM
Cc1ccc(-c2cc(-c3ccc4c(c3)OCO4)c(C#N)c(N)n2)o1	7.11 µM
O=C1CC(c2ccco2)CC(O)=C1C=Nc1cc(Cl)ccc1O (stereo unspecified)	4.47 µM

SMILES	IC50
CCOC(=O)C1CCCN(C(=O)c2cc(-c3ccco3)nc3ccccc23)C1 (stereo unspecified)	2.64 µM
O=[N+]([O-])c1cc2no[n+]([O-])c2cc1N1CCCCC1	7.67 µM
Oc1ccc(/C=N/NP(=S)(c2ccccc2)c2ccccc2)c(O)c1O	17.6 µM
Cc1ccc([C@@H]2C3COCC=C3C(C#N)=C(N)C2(C#N)C#N)o1 (stereo partly specified)	10.3 µM
Cc1cc2c(c(=O)o1)C(c1ccc([N+](=O)[O-])o1)C(C#N)=C(N)O2 (stereo unspecified)	2.53 µM
CCCn1nc(C(=O)Nc2cc(C(=O)OC)ccc2C)c2ccccc2c1=O	86.5 µM
O=C(O)c1ccc(S(=O)(=O)c2ccc([N+](=O)[O-])cc2[N+](=O)[O-])cc1	53.3 µM
COc1ccc(/C=N/NC(=O)c2cc(O)c(O)c(O)c2)cc1Cn1cc([N+](=O)[O-])cn1	1.07 µM
CC[n+]1ccc(C)c2cc(P(=O)(c3ccccc3)c3ccccc3)ccc21	3.93 µM
O=C(CCS(=O)(=O)c1ccc(Br)cc1)NC1CCCC1	20.5 µM
O=S(=O)(O)c1cc(O)c2c(O)c(N=Nc3cc(Cl)ccc3O)c(S(=O)(=O)O)cc2c1	78.5 µM
O=C1C(=Cc2ccco2)CCCC1=Cc1ccco1	12.1 µM
CC1(CCl)N([O-])C2=C(CCCC2)[N+]1=O (stereo unspecified)	8.49 µM
CCOc1ccc(NC(=O)CCS(=O)(=O)c2ccc(Br)cc2)cc1	14.2 µM
Cc1ccc2c(c1)c(=O)c1c3n2CCN(C(=O)CCl)C3CC1 (stereo unspecified)	10.8 µM
O=C(NCCO)Nc1ccc2nc(-c3ccco3)c(-c3ccco3)nc2c1	0.24 µM
Cc1ccc(-n2nc(-c3ccc(N)cc3)cc2N)cc1	33.5 µM
NC(=O)/C(=C/c1ccco1)C(N)=S	9.35 µM
CN(C)c1cc(Cl)c2nonc2c1N	11.9 µM

SMILES	IC50
CCOC(=O)c1ccc(CC(=O)c2ccc(O)c(O)c2O)o1	11.5 µM
Nc1cc(N)nc(SCc2cc([N+](=O)[O-])cc3c2OCOC3)n1	74.1 µM
Cc1ccnc(NS(=O)(=O)c2ccc(NC(=O)Cc3cccs3)cc2)n1	8.35 µM
Oc1ccc(NCc2ccccc2OCc2ccccc2)cc1	3.97 µM
CCc1ccc2nc(N3CCN(C)CC3)c(C#N)cc2c1	33.8 µM
CNCc1ccccc1Sc1ccc(O)c(O)c1	2.64 µM
CCn1c2ccccc2c2cc(NC(=O)c3ccccc3[N+](=O)[O-])ccc21	14.7 µM
COC(=O)c1ccc(COc2ccccc2/C=C(\C#N)C(=O)Nc2c(C)cc(C)cc2C)cc1	22.9 µM
C/C(N)=C(/C#N)C(=O)CSc1nnc(Nc2c(C)cccc2C)s1	17.5 µM
CCCCC(=O)NC(=S)Nc1cc(C(=O)O)ccc1Cl	16 µM
Nc1ccc(S(=O)(=O)c2cc(O)c3ccccc3c2O)cc1	24.8 µM
COc1ccccc1-n1cnc2cc(NCc3cccs3)ccc21	82.7 µM
CC(C)(C)C1C/C(=C/c2ccco2)C(=O)/C(=C/c2ccco2)C1 (stereo unspecified)	2.65 µM
COc1ccccc1-n1c(SCC(=O)NCc2ccc3c(c2)OCO3)nc2cc([N+](=O)[O-])ccc21	22.7 µM
O=C1c2cccnc2C(Nc2ccccc2)N1Cc1ccco1 (stereo unspecified)	22.9 µM
CCOC(=O)c1ccc(NS(=O)(=O)c2ccc3oc(=O)[nH]c3c2)cc1	88.2 µM
Cn1cccc1/C=C1\CCC/C(=C\c2cccn2C)C1=O	3.09 µM
O=C1CC(Nc2ccc(N3CCOCC3)cc2)C(=O)N1c1ccccc1F (stereo unspecified)	1.65 µM

Reference: PubChem BioAssay AID1117319 (Southern Research Institute, 2015)
